Data set [1] in a line: Hemolytic activity against New Zealand white rabbit RBC assessed as hemoglobin release measured after 1 hr. The data set is classed as ADME, cell-based, Oryctolagus cuniculus, Erythrocyte. As to conditions: red blood cells.
Data set [2] relates to Staphylococcus aureus. Put plainly: Antibacterial activity against methicillin-resistant Staphylococcus aureus isolate DM21455. The data set is classed as functional.
The subject of data set [3] is Staphylococcus aureus. The experiment in a line: Antibacterial activity against Staphylococcus aureus isolate DM4001. The data set is classed as functional.
The subject of data set [4] is Mycolicibacterium smegmatis. Put plainly: Antimycobacterial activity against Mycobacterium smegmatis MC2 155 after 24 hrs by broth dilution assay. The data set is classed as functional. As to conditions: str. MC2 155, 24 h.
Data set [5] is described as follows: Cytotoxicity against human corneal fibroblasts assessed as increase in LDH level measured after 4 hrs by Cytotox-one […] assay. The data set is classed as toxicity, Corneal fibroblast.
For another data set, the target named is CYP3A4 (Homo sapiens, UniProt P08684). Put plainly: Inhibition of CYP3A4 in human liver microsomes at 10 uM using midazolam as substrate preincubated for 5 min followed by NADPH addition measured after 10 mins by LC-MS/MS method relative to control. The data set is classed as ADME. As to conditions: probe midazolam.
Sequence of CYP3A4 (P08684 whole entry): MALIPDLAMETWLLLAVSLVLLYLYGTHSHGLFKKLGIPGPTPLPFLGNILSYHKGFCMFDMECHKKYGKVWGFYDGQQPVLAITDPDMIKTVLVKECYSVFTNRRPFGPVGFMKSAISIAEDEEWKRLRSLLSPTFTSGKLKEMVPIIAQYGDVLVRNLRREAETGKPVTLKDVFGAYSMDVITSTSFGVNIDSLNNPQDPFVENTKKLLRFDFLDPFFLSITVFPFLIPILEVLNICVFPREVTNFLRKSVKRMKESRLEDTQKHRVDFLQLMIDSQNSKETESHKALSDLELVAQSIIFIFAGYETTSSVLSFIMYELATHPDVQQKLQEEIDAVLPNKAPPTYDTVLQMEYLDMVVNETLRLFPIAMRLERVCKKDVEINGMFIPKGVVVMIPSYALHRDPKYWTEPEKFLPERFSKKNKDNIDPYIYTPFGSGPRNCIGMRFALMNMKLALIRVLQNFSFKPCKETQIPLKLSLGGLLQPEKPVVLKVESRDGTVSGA
The next data set addresses CYP2D6 (Homo sapiens, UniProt P10635). Put plainly: Inhibition of CYP2D6 in human liver microsomes at 10 uM using bufuralol as substrate preincubated for 5 min followed by NADPH addition measured after 10 mins by LC-MS/MS method relative to control. The data set is classed as ADME. The settings on record: probe bufuralol.
Data set [6] in a line: Cytotoxicity against human corneal fibroblasts assessed as reduction in ATP level measured after 4 hrs by Celltiter-Glo luminescent assay. The data set is classed as toxicity, Corneal fibroblast.
The nature of data set [7]: Drug metabolism in rat liver microsomes at 1 uM preincubated for 5 mins followed by NADPH addition measured up to 30 mins by LC-MS/MS method. The settings on record: read-out: Drug metabolism. The data set is classed as ADME.
The next data set addresses CYP2C19 (Homo sapiens, UniProt P33261). Put plainly: Inhibition of CYP2C19 in human liver microsomes at 10 uM using omeprazole as substrate preincubated for 5 min followed by NADPH addition measured after 10 mins by LC-MS/MS method relative to control. The data set is classed as ADME. The settings on record: probe omeprazole.
The nature of data set [8]: Half life in rat liver microsomes at 1 uM preincubated for 5 mins followed by NADPH addition measured by LC-MS/MS method. The data set is classed as ADME.
Data set [9] in a line: Selectivity index, ratio of CC50 for human corneal fibroblasts assessed as reduction in ATP level to MIC90 for Mycobacterium smegmatis MC2 155.
Data set [10] can be described thus: Selectivity index, ratio of CC50 for human corneal fibroblasts assessed as reduction in ATP level to MIC90 for Mycobacterium bovis BCG ATCC 35734.

Values after ≈ are worked out from the molar mass of the structure shown. Where only a bound is given, the exact number is not on record here.

Sequence of CYP2C19 (P33261 whole entry): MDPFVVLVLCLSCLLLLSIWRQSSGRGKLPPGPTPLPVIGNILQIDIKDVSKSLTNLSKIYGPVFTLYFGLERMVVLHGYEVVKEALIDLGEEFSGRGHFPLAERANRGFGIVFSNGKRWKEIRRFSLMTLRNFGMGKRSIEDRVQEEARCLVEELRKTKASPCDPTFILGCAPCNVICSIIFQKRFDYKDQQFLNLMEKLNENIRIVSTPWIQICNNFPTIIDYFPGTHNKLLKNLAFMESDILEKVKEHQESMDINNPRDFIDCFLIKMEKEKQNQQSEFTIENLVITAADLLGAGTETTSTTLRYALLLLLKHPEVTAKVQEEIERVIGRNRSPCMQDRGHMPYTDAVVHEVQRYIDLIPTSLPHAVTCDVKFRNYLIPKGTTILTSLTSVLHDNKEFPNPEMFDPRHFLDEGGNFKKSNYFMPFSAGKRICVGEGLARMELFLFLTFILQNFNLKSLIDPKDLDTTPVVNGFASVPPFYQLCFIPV
Sequence of CYP2D6 (P10635 whole entry): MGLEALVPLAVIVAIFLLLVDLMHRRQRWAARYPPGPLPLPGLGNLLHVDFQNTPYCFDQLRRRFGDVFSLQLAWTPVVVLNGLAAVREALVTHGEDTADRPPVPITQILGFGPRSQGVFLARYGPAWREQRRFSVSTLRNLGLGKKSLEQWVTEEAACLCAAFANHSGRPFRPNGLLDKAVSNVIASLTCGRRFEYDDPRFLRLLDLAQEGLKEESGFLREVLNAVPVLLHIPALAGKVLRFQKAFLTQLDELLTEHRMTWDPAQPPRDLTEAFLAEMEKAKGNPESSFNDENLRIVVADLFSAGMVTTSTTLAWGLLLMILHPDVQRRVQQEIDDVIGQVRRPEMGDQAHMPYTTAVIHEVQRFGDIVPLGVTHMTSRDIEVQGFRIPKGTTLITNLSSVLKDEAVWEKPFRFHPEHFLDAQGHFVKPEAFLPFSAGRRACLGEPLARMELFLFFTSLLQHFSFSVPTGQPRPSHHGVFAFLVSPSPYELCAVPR

As to `COc1c(OCC(O)CNCCNC(=N)N)cc2oc3cc(OCC(O)CNCCNC(=N)N)c(CC=C(C)C)c(O)c3c(=O)c2c1CC=C(C)C` (centres undefined), the HC50 at 1 h in [1] was found to be 141 µM. The MIC against Staphylococcus aureus [2] and with Staphylococcus aureus [3] was 5 µM (≈ 3.63 µg/mL) each time. Moreover, the MIC90 in data set [4] is above 30 µM.

In the case of `COc1c(OCCCCN2CCSCC2)cc2oc3cc(OCCCCN4CCSCC4)c(CC=C(C)C)c(O)c3c(=O)c2c1CC=C(C)C`, the 50% haemolytic concentration (HC50) at 1 h in data set [1] was above 276 µM. In addition, the MIC90 in data set [4] was above 30 µM.

As for `COc1c(OCC(O)CNCCN)cc2oc3cc(OCC(O)CNCCN)c(CC=C(C)C)c(O)c3c(=O)c2c1CC=C(C)C` (centres undefined), the HC50 at 1 h in [1] was 125 µM. For the same molecule, the values for the MIC in the data set on Staphylococcus aureus [2] and against Staphylococcus aureus [3] were 5 µM (≈ 3.21 µg/mL) and 10 µM (≈ 6.43 µg/mL), respectively. In data set [4], this molecule returned an MIC90 above 30 µM.

Consider `COC(=O)C(CCCNC(=N)N)NC(=O)COc1cc2oc3cc(OCC(=O)NC(CCCNC(=N)N)C(=O)OC)c(OC)c(CC=C(C)C)c3c(=O)c2c(O)c1CC=C(C)C` (centres undefined), for which the CC50 at 4 h turned out to be 13.4 µM in data set [5] and 13.7 µM in [6]. Moreover, the inhibition at 10 min, 10 µM at CYP3A4 stood at 36%; against CYP2D6, 11%; against CYP2C19, 1%. Moreover, in data set [1], the HC50 at 1 h was determined as 309 µM. Also, the minimal inhibitory concentration (MIC) worked out at 2.5 µM (≈ 2.17 µg/mL) in the data set with Staphylococcus aureus [2] and 3.5 µM (≈ 3.03 µg/mL) against Staphylococcus aureus [3]. The metabolised at 0.5 h, 1 µM in data set [7] was found to be 12.6%. The molecule further yielded a half-life at 1 µM in data set [8] above 30 min. In addition, the MIC90 in [4] was above 30 µM.

`CCCN(CCC)CC(O)COc1cc2oc3cc(OCC(O)CN(CCC)CCC)c(OC)c(CC=C(C)C)c3c(=O)c2c(O)c1CC=C(C)C` (centres undefined): the HC50 at 1 h in data set [1] was above 276 µM. This molecule registered an MIC90 in data set [4] above 30 µM.

Turning to `COc1c(OCCCCN2CCOCC2)cc2oc3cc(OCCCCN4CCOCC4)c(CC=C(C)C)c(OCCCCN4CCOCC4)c3c(=O)c2c1CC=C(C)C`, the HC50 at 1 h in data set [1] is above 240 µM. The MIC90 in data set [4] is above 30 µM.

As to `CCN(CC)CCCCCCCOc1cc2oc3cc(OCCCCCCCN(CC)CC)c(OC)c(CC=C(C)C)c3c(=O)c2c(O)c1CC=C(C)C`, the CC50 at 4 h in [5] is above 150 µM; in data set [6], 95.1 µM. The inhibition at 10 min, 10 µM was 3% on CYP3A4, 6% at CYP2D6 and 16% against CYP2C19. Besides, in [1], the HC50 at 1 h turned out to be 86 µM. For the same molecule, the “Selectivity Index” value in [9] and in [10] was 15 - 40 throughout. Moreover, the metabolised at 0.5 h, 1 µM in data set [7] stood at 13.9%. Moreover, the half-life at 1 µM in data set [8] is above 30 min. This molecule registered an MIC90 in [4] of 6.4 µM (≈ 4.79 µg/mL).

For the molecule `CCN(CC)CCCCOc1ccc2c(=O)c3c(O)cc(OCCCCN(CC)CC)cc3oc2c1`, the HC50 at 1 h in data set [1] was above 401 µM. This molecule also displayed an MIC90 in data set [4] above 30 µM.

For the molecule `CCN(CC)CCCCOc1cc2oc3cc(OCCCCN(CC)CC)c(OC)c(CCC(C)C)c3c(=O)c2c(O)c1CCC(C)C`, in data set [4], the MIC90 came to 6.4 µM (≈ 4.28 µg/mL).

As to `CCN(CC)CCOc1cc2oc3cc(OCCN(CC)CC)c(OC)c(CC=C(C)C)c3c(=O)c2c(O)c1CC=C(C)C`, the CC50 at 4 h in [5] turned out to be 92.6 µM; in data set [6], 44.1 µM. For the same molecule, the inhibition at 10 min, 10 µM against CYP3A4 was found to be 20%; against CYP2D6, 28%; at CYP2C19 it was 16%. In data set [1], the HC50 at 1 h was above 328 µM. Also, the metabolised at 0.5 h, 1 µM in data set [7] stood at 82.8%. The same molecule had a half-life at 1 µM in data set [8] of 12 min. In addition, the MIC90 in [4] is 3.2 µM (≈ 1.95 µg/mL).

`CCN(CC)CC(O)COc1cc2oc3cc(OCC(O)CN(CC)CC)c(OC)c(CC=C(C)C)c3c(=O)c2c(O)c1CC=C(C)C` (centres undefined): the HC50 at 1 h in data set [1] was determined as 108 µM. Moreover, the MIC90 in data set [4] amounted to 6.4 µM (≈ 4.28 µg/mL).

As for `COc1c(OCC(O)CNCCNCCNCCN)cc2oc3cc(OCC(O)CNCCNCCNCCN)c(CC=C(C)C)c(O)c3c(=O)c2c1CC=C(C)C` (centres undefined), the HC50 at 1 h in data set [1] amounted to 155 µM. Also, the MIC in the data set with Staphylococcus aureus [2] and in the data set on Staphylococcus aureus [3] was 15 µM (≈ 12.2 µg/mL) each time. Moreover, the MIC90 in data set [4] is above 30 µM.

These data come from ChEMBL document CHEMBL3872220, “Amphiphilic xanthones as a potent chemical entity of anti-mycobacterial agents with membrane-targeting properties” (Eur J Med Chem, 2016).
